Values after ≈ are worked out from the molar mass of the structure shown.
Assays:
MEXF 989 = assay: Two-layer soft agar culture of human tumour xenografts; format: cell-based; settings: T/C ≤30%
Description: (§1) The in vitro activity of glycoconjugates of quinolone-a was determined on human tumour xenografts in a two-layer soft agar culture system according to Hamburger and Salmon (Science 197: 461-463).
(§2) The solid tumours were initially grown in the athymic naked mouse (NMRI nu/nu), obtained by surgery and comminuted mechanically. Individual cells were then obtained by incubation in an enzyme mixture of collagenase 0.05%, DNAse 0.07% and hyaluronidase 0.1% in RPMI at 37° C. for 30 minutes. The cells were washed 2× and then passed through a sieve of 200 μm and 20 μm mesh width.
(§3) The base layer comprises 0.2 ml of Iscoves's Modified Dulbeccos Medium with 20% foetal calf serum and 0.7% agar. 40,000 to 200,000 cells in 0.2 ml of the same medium and 0.4% agar were applied to this layer in 24 multiwell plates. The cytostatic substances were added in 0.2 ml of medium.
(§4) The cultures were incubated at 37° C. in a 7% CO2 atmosphere for 6 to 15 days. The colonies which had grown were then counted under an inverting microscope, the living colonies being stained with a tetrazolium chloride dyestuff 24 hours before the evaluation.
(§5) The effect of the active compound is expressed in per cent of surviving colonies compared with the colony count of untreated plates (T/C=colony count treated×100/control count untreated).
(§6) A substance is active if the T/C value is ≤30%.
(§7) This value is shown as the IC70 value in μg/ml in Table 8.

CXF 280 = assay: as above; format: cell-based; settings: T/C ≤30%
Description: as §1, §2, §3, §4, §5, §6, §7

LXFS 538 = assay: as above; format: cell-based; settings: T/C ≤30%
Description: as §1, §2, §3, §4, §5, §6, §7

OVXF 1023 = assay: as above; format: cell-based; settings: T/C ≤30%
Description: as §1, §2, §3, §4, §5, §6, §7

LXFL 529 = assay: as above; format: cell-based; settings: T/C ≤30%
Description: as §1, §2, §3, §4, §5, §6, §7

SW 480 [1] = assay: as above; format: cell-based; settings: T/C ≤30%
Description: as §1, §2, §3, §4, §5, §6, §7

OVXF 899 = assay: as above; format: cell-based; settings: T/C ≤30%
Description: as §1, §2, §3, §4, §5, §6, §7

HT 29 = assay: as above; format: cell-based; settings: T/C ≤30%
Description: as §1, §2, §3, §4, §5, §6, §7

[2] = Acute toxicity, single administration; format: in vivo, nu/nu naked mice; settings: single administration i.v., aqueous solution
Description: Determination of the Acute Toxicity of Glycoconjugates of Batracyline (Single Administration)
The acute toxicity of the batracyline derivatives was determined on nu/nu naked mice.
The substances administered i.v., as aqueous solutions, and the substances administered i.p., as solutions in dimethyl sulphoxide, were injected once in concentrations of up to 400 mg of substance per kg of mouse.
The individual dose tolerated was calculated from the decrease in the weight of the animals up to 21 days after administration and from the number of animals surviving.

[3] = test system: bone marrow parent cells of the mouse; assay: CSF-induced proliferation of bone marrow parent cells, in vitro; format: cell-based; settings: recombinant murine GM-CSF, 7 days
Description: Bone marrow cells are flushed out of the femur of mice. 10^5 cells are incubated in McCoy SA medium (0.3% agar) together with recombinant murine GM-CSF (Genzyme; parent cell colony formation) and the substances (10^-4 to 100 μg/ml) at 37° C. and 7% CO2. 7 days later, the colonies ([…]) and clusters (17-50 cells) are counted.

B16F10 tumour = assay: In vivo test, survival of mice with transplanted B16F10 tumour; set-up: species or system mouse; settings: 0.1 mg/kg, treated daily
Description: Mice are inoculated with 5×10^6 B16F10 tumour cells on day 0. The animals in which tumour cells are transplanted develop solid peritoneal tumours and are then treated daily with test substances or with the vehicle control. In the control group, 50% of the animals usually die between day 14 and 20. The test substances are administered in buffer or an organic solvent system comprising 20% methanol and 20% dimethyl sulphoxide in 0.7% sodium chloride solution.
The therapeutic result arises from the prolonging of the survival time of the treated animals. […] A therapeutic index can be estimated from the tolerance and prolonging of the survival time.

bone marrow parent cells = assay: Bone marrow parent cell proliferation after in vivo treatment; set-up: species or system mouse
Description: Mice are treated subcutaneously with 1, 3, 10 or 30 mg/kg of the compounds. At various times (3, 24, 48, 72 p. inj.) the femurs are removed and the bone marrow cells isolated. 2×10^5 cells are incubated with GM-CSF as described above and, after 7 days, the colonies and clusters are counted.

B 16 F 10 = assay: Growth inhibition test (MTT) for cytotoxic properties; format: cell-based, mouse; settings: Table 1b
Summary of the method: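 Cells in RPMI 1640 with 10% FCS pre-cultured 1 day at 37° C, then exposed to test substances in DMSO; growth checked after day 3 and day 6. Read-out by MTT, 5 h incubation, isopropanol solubilization, extinction at 540 nm.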

SW 480 [4] = assay: as above; format: cell-based, human; settings: Table 1b
Summary of the method: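 SW 480 and HT 29 cells in RPMI 1640 with 10% FCS were seeded at 50,000 cells/ml, grown 1 day at 37 °C, then exposed to compound added in DMSO. MTT (5 mg/ml stock) was applied after day 3 and day 6 for 5 h, and formazan absorbance was read at 540 nm. IC50 values reported.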

hepatoma = assay: Cleavage kinetics with cells (HPLC); settings: Table 2b; 37° C.
Description: Cleavage Kinetics With Cells
(§8) 2.25 ml of PBS are incubated together with 225 μl of a cell suspension (30 mg/ml) and 25 μl of substrate stock solution (1 mg/ml in 3% dimethyl sulphoxide in PBS) at 37° C. After 1 hour and 24 hours, samples of in each case 1 ml are taken, mixed with 1 ml of ethanol and left to stand at 4° C. for 20 minutes. After centrifugation (5 minutes at 3500 rpm), 100 μl of supernatant are taken for the HPLC analysis.

SW-480 = assay: Cleavage kinetics with cells (HPLC); settings: Table 2b; 37° C.
Description: Cleavage Kinetics With Cells
as §8

[5] = Cleavage kinetics with human blood (HPLC); format: in vitro ADME; settings: Table 2b; 37° C.
Source text: In Vitro Investigation of the Cleavability of the Glycoconjugates
Cleavage Kinetics With Human Blood

| SMILES | IC70 /μg/ml (MEXF 989) [µg/mL] | IC70 /μg/ml (CXF 280) [µg/mL] | IC70 /μg/ml (LXFS 538) [µg/mL] | IC70 /μg/ml (OVXF 1023) [µg/mL] | IC70 /μg/ml (LXFL 529) [µg/mL] | IC70 /μg/ml (SW 480 [1]) [µg/mL] | IC70 /μg/ml (OVXF 899) [µg/mL] | IC70 /μg/ml (HT 29) [µg/mL] | Individual dose tolerated in mg/kg of mouse, i.v. [2] | other results |
| --- | --- | --- | --- | --- | --- | --- | --- | --- | --- | --- |
| N[C@@H]1C=CC[C@@H]2CN(c3c(F)cc4c(=O)c(C(=O)O)cn(C5CC5)c4c3Cl)C[C@@H]21 (racemic) [Quinolone-a, 7-[(3aRS,4RS,7aSR)-4-amino-1,3,3a,4,7,7a-hexahydro-isoindol-2-yl]-8-chloro 1-cyclopropyl-6-fluoro-1,4-dihydro4-oxo-3-quinolinecarboxylic acid, reference compound] | < 0.3 | 6 (≈ 14.4 µM) | < 0.3 | 0.5 (≈ 1.2 µM) | 3 (≈ 7.18 µM) | 3 (≈ 7.18 µM) | 2 (≈ 4.79 µM) | 20 (≈ 47.9 µM) | < 25 mg/kg of mouse | IC50 ([3]; Mus musculus, 168 h, read-out: IC50 [μg/ml] CSF-induced proliferation of bone marrow parent cells of the mouse): 0.0002 µg/mL; % survivors Day 0 (B16F10 tumour): 100%; % survivors Day 20 (B16F10 tumour): 100%; % survivors Day 25 (B16F10 tumour): 100%; % survivors Day 30 (B16F10 tumour): 60%; % survivors Day 35 (B16F10 tumour): 40%; suppression of parent cell proliferation in vivo (bone marrow parent cells; 3 mg/kg, subcutaneously (FIG. 1)): massive suppression |
| C[C@@H]1O[C@H](Oc2ccc(NC(=S)N[C@H](C)C(=O)NC3C=CCC4CN(c5c(F)cc6c(=O)c(C(=O)O)cn(C7CC7)c6c5Cl)CC43)cc2)[C@@H](O)[C@H](OCC(=O)[O-])[C@@H]1O.[Na+] (stereo partly drawn) [Example 12.3, N-{N'-[O-(3-O-Carboxymethyl-β-L-fucosyl)-4-hydroxy-phenylamino-thiocarbonyl]-D-alanyl}-quinolone-a, mono-sodium salt] | < 0.3 | 5 | 0.5 | 10 | 2 | 11 | 162 | 5 | > 200 mg/kg of mouse | IC50 (B 16 F 10): 0.3 µM; IC50 [μg/ml] CSF-induced proliferation of bone marrow parent cells of the mouse [3]: 0.27 µg/mL; IC50 (SW 480 [4]): 2 µM; % cleavage in hepatoma 1 hour (hepatoma): 0%; % cleavage in hepatoma 24 hours (hepatoma): 0%; % cleavage in SW-480 1 hour (SW-480): 0%; % cleavage in SW-480 24 hours (SW-480): 0%; % cleavage in human blood 1 hour [5]: 0%; % cleavage in human blood 24 hours [5]: 0%; inhibition in parent cell proliferation in vivo (bone marrow parent cells; up to 30 mg/kg, subcutaneously): no inhibition |

Source: patent US6271342A, “Sugar-modified cytostatics” (Bayer Aktiengesellschaft, priority 1995, dated 2001)
